Data taken from BindingDB's records for doi:10.1074/jbc.M501100200 (University of Texas Southwestern Medical Center, 2005).

How the values were obtained:
Assay in all cases: DHODH Inhibition Assay
[1] = target: T1, Dihydroorotate dehydrogenase (quinone), mitochondrial [30-395] (Homo sapiens, UniProt Q02127)
T1 construct: 30-395
Method: (§1) The assays were carried out by using a colorimetric DCIP method, which uses the colorimetric reagent 2, 6-dichlorophenolindophenol as the final electron acceptor. DCIP reduction is stoichiometrically equivalent to oxidation of dihydroorotate. Changes in absorbance were quantified on a plate reader and data were analyzed to measure the reduction of DCIP as a decrease in absorbance at 600 nm. For the determination of the IC50 values (concentration of inhibitor required for 50% inhibition) different inhibitor concentrations were applied.

[2] = target: T2, Dihydroorotate dehydrogenase (quinone), mitochondrial (Plasmodium falciparum, UniProt Q54A96); conditions: pH 8; 22 °C
T2 sequence (Q54A96 whole entry): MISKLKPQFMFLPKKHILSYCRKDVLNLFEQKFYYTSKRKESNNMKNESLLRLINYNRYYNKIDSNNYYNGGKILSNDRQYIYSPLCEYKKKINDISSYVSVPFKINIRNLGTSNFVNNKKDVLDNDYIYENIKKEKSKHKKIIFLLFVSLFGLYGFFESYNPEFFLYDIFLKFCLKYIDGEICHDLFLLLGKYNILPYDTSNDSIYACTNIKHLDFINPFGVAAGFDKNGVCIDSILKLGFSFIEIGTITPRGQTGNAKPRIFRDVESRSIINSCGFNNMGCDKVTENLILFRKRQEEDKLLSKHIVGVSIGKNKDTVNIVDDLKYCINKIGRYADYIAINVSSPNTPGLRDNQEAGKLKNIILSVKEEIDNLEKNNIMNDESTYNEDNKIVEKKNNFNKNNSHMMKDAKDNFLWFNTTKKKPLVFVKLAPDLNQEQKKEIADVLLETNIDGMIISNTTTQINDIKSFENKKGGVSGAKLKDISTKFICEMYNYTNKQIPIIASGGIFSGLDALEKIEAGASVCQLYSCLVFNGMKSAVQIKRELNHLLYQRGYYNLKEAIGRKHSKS
Method: as §1

[3] = target: Dihydroorotate dehydrogenase (quinone), mitochondrial [R265A] (Plasmodium falciparum, UniProt Q54A96, R265A)
Sequence of Dihydroorotate dehydrogenase (quinone), mitochondrial [R265A] (Q54A96 whole entry R265A): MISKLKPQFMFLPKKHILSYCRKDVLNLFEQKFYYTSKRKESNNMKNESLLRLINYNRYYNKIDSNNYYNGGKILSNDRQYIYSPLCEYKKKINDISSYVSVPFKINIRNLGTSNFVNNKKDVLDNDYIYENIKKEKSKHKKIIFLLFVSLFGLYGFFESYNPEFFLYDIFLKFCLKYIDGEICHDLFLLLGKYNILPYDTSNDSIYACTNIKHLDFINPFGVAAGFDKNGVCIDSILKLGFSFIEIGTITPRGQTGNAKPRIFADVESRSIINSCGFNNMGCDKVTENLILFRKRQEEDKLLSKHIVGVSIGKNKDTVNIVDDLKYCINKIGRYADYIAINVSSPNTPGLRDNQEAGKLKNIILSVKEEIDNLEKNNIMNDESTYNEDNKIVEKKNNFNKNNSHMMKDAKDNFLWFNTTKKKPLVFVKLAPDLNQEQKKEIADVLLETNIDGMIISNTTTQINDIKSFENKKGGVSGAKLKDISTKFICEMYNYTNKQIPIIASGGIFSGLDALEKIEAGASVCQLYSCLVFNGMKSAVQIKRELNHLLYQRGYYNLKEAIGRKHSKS
Method: as §1

[4] = target: Dihydroorotate dehydrogenase (quinone), mitochondrial [H185A] (Plasmodium falciparum, UniProt Q54A96, H185A)
Sequence of Dihydroorotate dehydrogenase (quinone), mitochondrial [H185A] (Q54A96 whole entry H185A): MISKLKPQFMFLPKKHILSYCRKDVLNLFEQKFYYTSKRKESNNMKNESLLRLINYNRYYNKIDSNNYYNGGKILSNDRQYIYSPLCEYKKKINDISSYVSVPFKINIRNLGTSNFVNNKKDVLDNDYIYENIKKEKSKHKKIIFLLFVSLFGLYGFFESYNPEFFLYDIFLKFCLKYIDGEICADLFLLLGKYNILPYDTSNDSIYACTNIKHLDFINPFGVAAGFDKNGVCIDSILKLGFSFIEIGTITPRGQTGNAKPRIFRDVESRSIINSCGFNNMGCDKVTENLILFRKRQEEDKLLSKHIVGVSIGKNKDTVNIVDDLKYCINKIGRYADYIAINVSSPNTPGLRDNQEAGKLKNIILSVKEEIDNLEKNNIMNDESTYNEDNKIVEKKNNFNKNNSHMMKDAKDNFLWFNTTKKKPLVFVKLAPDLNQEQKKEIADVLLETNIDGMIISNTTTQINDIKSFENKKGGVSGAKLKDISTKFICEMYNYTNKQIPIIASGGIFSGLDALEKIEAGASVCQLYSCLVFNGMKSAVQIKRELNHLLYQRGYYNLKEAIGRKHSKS
Method: as §1

T1 sequence (Q02127 30-395): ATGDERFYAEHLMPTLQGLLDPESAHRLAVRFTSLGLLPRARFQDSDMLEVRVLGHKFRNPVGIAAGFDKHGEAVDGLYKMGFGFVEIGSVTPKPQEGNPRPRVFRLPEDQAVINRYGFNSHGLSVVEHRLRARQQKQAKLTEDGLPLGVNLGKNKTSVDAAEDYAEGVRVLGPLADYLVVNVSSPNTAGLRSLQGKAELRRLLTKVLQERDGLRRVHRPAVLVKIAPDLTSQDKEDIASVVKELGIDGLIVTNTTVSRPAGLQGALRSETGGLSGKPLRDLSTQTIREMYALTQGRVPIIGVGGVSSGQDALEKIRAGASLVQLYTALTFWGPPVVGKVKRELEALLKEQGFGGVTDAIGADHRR

Compound	IC50 [1] [µM]	IC50 [2] [µM]	IC50 [3] [µM]	IC50 [4] [µM]
Cc1c(C(=O)Nc2cccc3ccccc23)cccc1[N+](=O)[O-] [2-methyl-N-(naphthalen-1-yl)-3-nitrobenzamide]	100	0.08	0.48	180
Cc1c(C(=O)Nc2ccc(F)c(F)c2)cccc1[N+](=O)[O-] [N-(3,4-difluorophenyl)-2-methyl-3-nitrobenzamide]	200	0.26	0.82	250
O=C(Nc1ccc(Cl)cc1Cl)c1ccc2ccccc2c1 [N-(2,4-dichlorophenyl)naphthalene-2-carboxamide]	> 50	0.05	0.08	> 50
Cc1c(C(=O)Nc2ccc(Cl)c(Cl)c2)cccc1[N+](=O)[O-] [N-(3,4-dichlorophenyl)-2-methyl-3-nitrobenzamide]	72	0.08	2.8	60
Cc1c(C(=O)Nc2cccc(Br)c2)cccc1[N+](=O)[O-] [N-(3-bromophenyl)-2-methyl-3-nitrobenzamide]	105	0.06	1.2	140
O=C(Nc1ccccc1F)c1ccc2ccccc2c1 [N-(2-fluorophenyl)naphthalene-2-carboxamide]	34	0.47	0.3	210
COc1ccccc1NC(=O)Nc1cccc2ccccc12 [3-(2-methoxyphenyl)-1-naphthalen-1-ylurea]	112	0.23	0.24	140
Cc1c(C(=O)Nc2cccc(C(F)(F)F)c2)cccc1[N+](=O)[O-] [2-methyl-3-nitro-N-[3-(trifluoromethyl)phenyl]benzamide]	150	0.08	0.37	120
O=C(Nc1ccc(Cl)cc1)Nc1cccc2cccnc12 [3-(4-chlorophenyl)-1-quinolin-8-ylurea]	116	0.78	2	> 400
Cc1c(C(=O)Nc2ccc(F)c(Cl)c2)cccc1[N+](=O)[O-] [N-(3-chloro-4-fluorophenyl)-2-methyl-3-nitrobenzamide]	116	0.1	0.5	130
Cc1c(C(=O)Nc2cc(Cl)cc(Cl)c2)cccc1[N+](=O)[O-] [Asinex compound no. 6]	200	0.016	0.4	130
Cc1cc(Br)ccc1NC(=O)c1ccc2ccccc2c1 [ChemBridge compound no. 2]	210	0.05	0.05	570
O=C(Nc1ccccc1C(F)(F)F)Nc1cccc2ccccc12 [1-naphthalen-1-yl-3-[2-(trifluoromethyl)phenyl]urea]	> 1000	0.4	0.34	> 200
